Data reported in patent US20100160369A1, “S1P1 Agonists and Methods of Making And Using” (EXELIXIS, INC., priority 2008, published 2010).

Tests used:
S1P1 [1] = target: T1, S1P1 (Homo sapiens, UniProt P21453); test: Tango β-arrestin Recruitment Assay in HEK293 cells (Assay 2a); format: cell-based; design: linker with TEV protease (N1a) cleavage site (C); host or cells: HEK293, transiently transfected; details: Tango β-arrestin Recruitment Assay, read-out: Assay 2a EC50
Outline: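 Agonist-driven β-arrestin2–TEV recruitment releases tTA to drive luciferase in transiently transfected HEK293 cells. Ten 3-fold dilutions from 10 μM top (1% DMSO), 16–18 h at 37 °C; EC50 fitted to percent activity versus DMSO background and 5 μM S1P efficacy control.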
Target sequence in this assay (P21453 whole entry): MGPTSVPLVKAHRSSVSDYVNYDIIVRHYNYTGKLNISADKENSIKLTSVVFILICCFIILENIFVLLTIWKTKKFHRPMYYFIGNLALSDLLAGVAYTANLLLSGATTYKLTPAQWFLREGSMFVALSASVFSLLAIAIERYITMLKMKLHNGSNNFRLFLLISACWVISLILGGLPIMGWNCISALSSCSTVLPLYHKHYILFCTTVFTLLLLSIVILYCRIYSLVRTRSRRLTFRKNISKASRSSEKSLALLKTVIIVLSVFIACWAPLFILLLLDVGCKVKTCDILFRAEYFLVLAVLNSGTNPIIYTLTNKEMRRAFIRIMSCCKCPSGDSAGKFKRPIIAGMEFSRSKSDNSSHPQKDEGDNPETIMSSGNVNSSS
Target sequence in this assay (P32121 whole entry partner): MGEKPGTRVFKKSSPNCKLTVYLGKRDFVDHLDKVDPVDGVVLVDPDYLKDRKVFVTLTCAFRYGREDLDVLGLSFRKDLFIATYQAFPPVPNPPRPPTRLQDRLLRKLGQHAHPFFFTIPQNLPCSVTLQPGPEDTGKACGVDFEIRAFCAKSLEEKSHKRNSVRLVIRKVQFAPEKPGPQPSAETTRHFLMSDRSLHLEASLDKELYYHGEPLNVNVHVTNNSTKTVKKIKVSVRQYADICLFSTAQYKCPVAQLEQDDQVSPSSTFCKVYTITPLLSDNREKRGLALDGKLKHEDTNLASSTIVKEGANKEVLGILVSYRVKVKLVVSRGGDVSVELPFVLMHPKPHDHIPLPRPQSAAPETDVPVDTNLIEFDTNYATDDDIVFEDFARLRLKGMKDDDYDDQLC

S1P1 [2] = target: T1, S1P1; test: CNG cAMP Assay (Assay 1); format: cell-based; design: host or cells: HEK293 cells expressing the CNG channel; details: read-out: Assay 1 EC50
Outline: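 cAMP-gated CNG membrane-potential read-out (350/590 nm, T90/T0 ratio) in S1P1/CNG HEK293 cells after 90 min with compound plus NECA 500 nM, S1P 10 nM (EC95), Ro 20-1724 25 μM. Ten 3-fold points from 10 μM, 1.8% DMSO; percent activity vs NECA-only control gives EC50.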
Target sequence in this assay (P21453 whole entry): as the sequence (P21453 whole entry) above

S1P1 [3] = target: T1, S1P1; test: DELFIA GTP-Eu Binding Assay (Assay 3b); format: biochemical; design: purchased Lonza; host or cells: CHO cell membranes
Procedure: The DELFIA GTP-Eu binding assay (PerkinElmer) is a time-resolved fluorometric assay based on GDP-GTP exchange. CHO cell membranes (Lonza) expressing human S1P1 were incubated in 96-well filter plates (Pall, East Hills, N.Y.) in a final volume of 100 μL/well buffer containing 40 μg/mL membrane, 50 mM HEPES, 2 μM GDP, 10 mM MgCl2, 100 mM NaCl, 500 μg/mL Saponin and test compound. Test compounds were tested at maximum concentrations of 10 μM. Compounds were diluted (10 concentration points, 3-fold each) and added to the assay plate at a 1% final DMSO concentration. For each compound, there were duplicate assay plates and each assay plate had duplicate wells per concentration point. The plates were incubated for 30 min at room temperature on a plate shaker at low speed. GTP-Eu was added to each well (10 μL, 10 nM final concentration) and the plate was incubated for an additional 30 min with slow shaking The wells were washed with ice cold GTP washing buffer (3×150 μL) using a vacuum manifold and the assay plates read in an EnVision plate reader (PerkinElmer) at an excitation wavelength of 340 nm and an emission wavelength of 615 nm. To determine agonist activity, percent activity was calculated as [(test compound−background)/(positive control−background)*100], where background is the fluorescence in absence of compound and the positive control is the fluorescence from membranes incubated with 1 μM S1P (Avanti). The percent activities were plotted against compound concentration to determine IC50 or EC50 using XLFit (IDBS).
(§1) Assay 1 is the CNG cAMP Assay as described in Biological Example 1. Assay 2a and 2b are the Tango™ β-arrestin Recruitment Assay in HEK293 and U2OS cells, respectively, as described in Biological Example 2. Assay 3a is the hS1P1R GTPγS Binding Assay as described in Biological Example 3. Assay 3b is the GTP-Eu Binding Assay as described in Biological Example 3. EC50's were measured unless otherwise noted. […] In the table, “nt” means the Compound was not tested and “no” means the compound was tested but had no measurable activity under the assay conditions employed.
Target sequence in this assay (P21453 whole entry): as above

hS1P1R (hEdg1) = target: T2, hS1P1R (hEdg1) (Homo sapiens, UniProt P21453); test: hS1P1R GTPγS Binding Assay (Assay 3a); format: biochemical
T2 construct: purchased Lonza
Procedure: The hS1P1R GTPγS binding assay was carried out at room temperature in 96 well non-binding surface assay plates. The reaction in each well contained 4 μg hS1P1R (hEdg1) membrane protein (Lonza), 30 μM GDP, 0.1 nM [^35S]GTPγS, 0.25% fatty acid free BSA, and serially diluted hS1P1R agonist compound in 200 μL assay buffer (25 mM Tris-HCl PH 7.9, 100 mM NaCl, 3 mM MgCl2, and 0.2 mM EGTA). After one hour of incubation, 0.9 mg of WGA (Wheat Germ Agglutinin) SPA beads in 50 μL of assay buffer was added to each well. The SPA beads were spun down after an additional one hour incubation. The radioactivity of the bound GTPγS was counted by reading the assay plate using a MicroBeta.
as §1

S1P1 [4] = target: T1, S1P1; test: Tango β-arrestin Recruitment Assay in U2OS cells (Assay 2b); format: cell-based; design: linker with TEV protease (N1a) cleavage site (C); details: Tango β-arrestin Recruitment Assay, read-out: Assay 2b EC50
Outline: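 Agonist EC50 from percent activity relative to 1 μM S1P efficacy control, using background-subtracted 460/530 nm emission ratios. Compounds (max 1 μM, ten 3-fold dilutions) incubated overnight at 37 °C with serum-starved S1P1 U2OS reporter cells, followed by 2 h β-lactamase reagent at room temperature.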
Target sequence in this assay (P21453 whole entry): as above
Target sequence in this assay (P32121 whole entry partner): as the sequence (P32121 whole entry partner) above

[5] = relative EC50 was measured (footnote 1), read-out: Assay 3b Relative EC50

T2 sequence (P21453 whole entry): as the sequence (P21453 whole entry) above

EC50 (S1P1 [1]) [nM]	EC50 (S1P1 [2]) [nM]	EC50 (S1P1 [3]; read-out: Assay 3b EC50) [nM]	EC50 (S1P1 [3]; [5]) [nM]	EC50 (hS1P1R (hEdg1)) [nM]	EC50 (S1P1 [4]) [nM]	SMILES
≤ 100	≤ 100	500 to 1000	–	–	–	O=C(O)CCc1ccc(-c2noc(-c3cn4cc(C(F)(F)F)cc(Cl)c4n3)n2)c(Cl)c1 [Entry 1]
≤ 100	≤ 100	100 to 500	–	–	–	Cc1cc(CCC(=O)O)ccc1-c1noc(-c2cn3cc(C(F)(F)F)cc(Cl)c3n2)n1 [Entry 2]
≤ 100	≤ 100	–	500 to 1000	–	–	O=C(O)CCc1ccc(-c2noc(-c3cn4cc(C(F)(F)F)cc(Cl)c4n3)n2)cc1F [Entry 6]
100 to 500	≤ 100	–	1000 to 5000	–	–	O=C(O)CCc1cc(F)c(-c2noc(-c3cn4cc(C(F)(F)F)cc(Cl)c4n3)n2)c(F)c1 [Entry 10]
≤ 100	≤ 100	–	–	≤ 100	≤ 100	OC[C@H](O)COc1cc(Cl)c(-c2noc(-c3cn4cc(C(F)(F)F)cc(Cl)c4n3)n2)cc1Cl [Entry 39]
≤ 100	≤ 100	100 to 500	–	–	–	COc1cc(Cl)c2nc(-c3nc(-c4cc(F)c(CCC(=O)O)cc4Cl)no3)cn2c1 [Entry 61]
≤ 100	≤ 100	100 to 500	–	–	–	O=C(O)/C=C/c1cc(Cl)c(-c2noc(-c3cn4cc(C(F)(F)F)cc(Cl)c4n3)n2)cc1F [Entry 63]
≤ 100	≤ 100	–	–	≤ 100	≤ 100	O=C(O)CCc1cc(Cl)c(-c2noc(-c3cn4cc(C(F)(F)F)cc(Br)c4n3)n2)cc1Cl [Entry 68]
100 to 500	≤ 100	–	1000 to 5000	–	–	Cc1cc(C2CC2C(=O)O)ccc1-c1noc(-c2cn3cc(C(F)(F)F)cc(Cl)c3n2)n1 (centres unmarked) [Entry 69]
100 to 500	≤ 100	–	1000 to 5000	–	–	O=C(O)C1CC1c1ccc(-c2noc(-c3cn4cc(C(F)(F)F)cc(Cl)c4n3)n2)c(Cl)c1 (centres unmarked) [Example 42, 2-(3-chloro-4-{5-[8-chloro-6-(trifluoromethyl)imidazo[1,2-a]pyridin-2-yl]-1,2,4-oxadiazol-3-yl}phenyl)cyclopropanecarboxylic acid]
≤ 100	≤ 100	100 to 500	–	–	–	O=C(O)C1CC1c1cc(Cl)c(-c2noc(-c3cn4cc(C(F)(F)F)cc(Cl)c4n3)n2)cc1F (centres unmarked) [Example 85, 2-(5-chloro-4-{5-[8-chloro-6-(trifluoromethyl)imidazo[1,2-a]pyridin-2-yl]-1,2,4-oxadiazol-3-yl}-2-fluorophenyl)cyclopropanecarboxylic acid]
100 to 500	≤ 100	500 to 1000	–	–	–	CS(=O)(=O)Nc1ccc(-c2noc(-c3cn4cc(C(F)(F)F)cc(Cl)c4n3)n2)c(Cl)c1 [Example 94, N-(3-chloro-4-{5-[8-chloro-6-(trifluoromethyl)imidazo[1,2-a]pyridin-2-yl]-1,2,4-oxadiazol-3-yl}phenyl)methanesulfonamide]
100 to 500	≤ 100	–	1000 to 5000	–	–	O=C(O)CCc1ccc(-c2nnc(-c3cn4cc(C(F)(F)F)cc(Cl)c4n3)o2)c(Cl)c1 [Example 99]
100 to 500	100 to 500	–	1000 to 5000	–	–	O=C(O)C1CN(Cc2ccc(-c3noc(-c4cn5cc(C(F)(F)F)cc(Cl)c5n4)n3)c(Cl)c2)C1 [Example 124, 1-[(3-chloro-4-{5-[8-chloro-6-(trifluoromethyl)imidazo[1,2-a]pyridin-2-yl]-1,2,4-oxadiazol-3-yl}phenyl)methyl]azetidine-3-carboxylic acid]
100 to 500	≤ 100	500 to 1000	–	–	–	O=C(O)CCNCc1ccc(-c2noc(-c3cn4cc(C(F)(F)F)cc(Cl)c4n3)n2)c(Cl)c1 [Example 130, N-[(3-chloro-4-{5-[8-chloro-6-(trifluoromethyl)imidazo[1,2-a]pyridin-2-yl]-1,2,4-oxadiazol-3-yl}phenyl)methyl]-beta-alanine]
≤ 100	≤ 100	–	–	≤ 100	≤ 100	Cc1cc(CCC(=O)O)c(Cl)cc1-c1noc(-c2cn3cc(C(F)(F)F)cc(Br)c3n2)n1 [Example 196, 3-(4-{5-[8-bromo-6-(trifluoromethyl)imidazo[1,2-a]pyridin-2-yl]-1,2,4-oxadiazol-3-yl}-2-chloro-5-methylphenyl)propanoic acid]
≤ 100	≤ 100	–	–	500 to 1000	≤ 100	OC[C@H](O)COc1cc(Cl)c(-c2nnc(-c3cn4cc(C(F)(F)F)cc(Cl)c4n3)s2)cc1Cl [Example 252, (25)-3-[(2,5-dichloro-4-{5-[8-chloro-6-(trifluoromethyl)imidazo[1,2-a]pyridin-2-yl]-1,3,4-thiadiazol-2-yl}phenyl)oxy]propane-1,2-diol]
≤ 100	≤ 100	–	–	≤ 100	≤ 100	OCCOc1cc(Cl)c(-c2noc(-c3cn4cc(C(F)(F)F)cc(Cl)c4n3)n2)cc1Cl [Example 288, 2-[(2,5-dichloro-4-{5-[8-chloro-6-(trifluoromethyl)imidazo[1,2-a]pyridin-2-yl]-1,2,4-oxadiazol-3-yl}phenyl)oxy]ethanol]
≤ 100	≤ 100	–	–	≤ 100	≤ 100	OC[C@@H](O)COc1cc(Cl)c(-c2noc(-c3cn4cc(C(F)(F)F)cc(Cl)c4n3)n2)cc1Cl [Example 289, (2R)-3-[(2,5-dichloro-4-{5-[8-chloro-6-(trifluoromethyl)imidazo[1,2-a]pyridin-2-yl]-1,2,4-oxadiazol-3-yl}phenyl)oxy]propane-1,2-diol]
≤ 100	≤ 100	–	–	100 to 500	≤ 100	CC(O)COc1cc(Cl)c(-c2noc(-c3cn4cc(C(F)(F)F)cc(Cl)c4n3)n2)cc1Cl (centres unmarked) [Example 292, 1-[(2,5-dichloro-4-{5-[8-chloro-6-(trifluoromethyl)imidazo[1,2-a]pyridin-2-yl]-1,2,4-oxadiazol-3-yl}phenyl)oxy]propan-2-ol]
≤ 100	–	–	–	≤ 100	≤ 100	C[C@@H](O)COc1cc(Cl)c(-c2noc(-c3cn4cc(C(F)(F)F)cc(Cl)c4n3)n2)cc1Cl [Example 295, (2R)-1-[(2,5-dichloro-4-{5-[8-chloro-6-(trifluoromethyl)imidazo[1,2-a]pyridin-2-yl]-1,2,4-oxadiazol-3-yl}phenyl)oxy]propan-2-ol]
≤ 100	≤ 100	–	–	100 to 500	≤ 100	O=C(O)CCc1cc(Cl)c(-c2nc(-c3cn4cc(C(F)(F)F)cc(Cl)c4n3)no2)cc1Cl [Example 315, 3-(2,5-dichloro-4-{3-[8-chloro-6-(trifluoromethyl)imidazo[1,2-a]pyridin-2-yl]-1,2,4-oxadiazol-5-yl}phenyl)propanoic acid]
